Patent US8604016B2, “Heterocyclic inhibitors of glutaminase” (Calithera Biosciences Inc., priority 2011, dated 2013)
Values after ≈ are worked out from the molar mass of the structure shown.

What was measured:
[1] = Solubility (18 hr vortex mixing at room temperature, filtration, HPLC); type: physicochemical; conditions: thermodynamic from solid
Experimental: Ca. 1 mg portions of test article were combined with 120 μL solvent in wells of a 96×2 mL polypropylene plate. […] The contents of all wells were then filtered through a 0.45 μm GHP filter plate to yield clear filtrates. 5 μL of each filtrate was diluted into 100 μL DMF and vortex mixed to yield HPLC samples. Duplicate quantitation standards for each test article were prepared by diluting weighed portions of solid test article in measured volumes of DMF. 2 μL of each HPLC sample and quantitation standard were analyzed by HPLC using the method outlined in Table 5. Dissolved test article concentrations were calculated by peak area ratio against the appropriate quantitation standards.

[2] = system: Caco-2 cell monolayers; assay: Caco-2 Permeability Assay (bidirectional); type: in vitro ADME
Description: (§1) Caco-2 cells are commonly used in a confluent monolayer on a cell culture insert filter. When cultured in this format and under specific conditions, the cells become differentiated and polarized such that their phenotype, morphologically and functionally resembles the enterocytes lining the small intestine. The cell monolayer provides a physical and biochemical barrier to the passage of small molecules, and is widely used across the pharmaceutical industry as an in vitro model of the human small intestinal mucosa to predict the absorption of orally administered drugs (Hidalgo et al., Gastroenterology, 1989; Artursson, J. Pharm. Sci., 1990). The correlation between the in vitro apparent permeability (P ? app) across Caco-2 monolayers and the in vivo absorption is well established (Artursson et al., Biochem. Biophys. Res. Comm., 1991).
(§2) The present assay was used to determine the bidirectional permeability of the compounds of the invention through Caco-2 cell monolayers. Caco-2 cells were grown in confluent monolayers where the media of both the apical (A) and basolateral (B) sides were at pH 7.4. Compounds were dosed at 1 μM in the presence of 200 μM Lucifer Yellow, on the apical side (A→B) or the basolateral side (B→A) for assessment, in duplicate.
(§3) The absorption potential of compounds were classified as either Low (P-app <1×10^−6 cm/s) or High (P-app >1×10^−6 cm/s).

[3] = Caco-2 Permeability Assay (bidirectional); type: in vitro ADME; conditions: human; for recovery at 120 min, 1 μM / Papp A→B at 120 min, 1 μM / Papp B→A at 120 min, 1 μM: pH 7.4; for efflux ratio at 120 min, 1 µM / Papp A→B at 120 min, 1 μM / Papp B→A at 120 min, 1 μM / permeability class (Low/High absorption potential) at 120 min, 1 µM: Caco-2; for efflux ratio at 120 min, 1 µM: (Papp B→A)/(Papp A→B); for Papp A→B at 120 min, 1 μM: Direction A→B; for Papp A→B at 120 min, 1 μM / Papp B→A at 120 min, 1 μM: unit not given (thresholds in 10^−6 cm/s); for Papp B→A at 120 min, 1 μM: Direction B→A; for permeability class (Low/High absorption potential) at 120 min, 1 µM: read-out: Permeability Classification
Description: as §1, §2, §3

[4] = 50 mM citrate buffer pH 2.3, 20 °C, aqueous buffer, 50 mM Cit pH 2.3, room temperature
[5] = 50 mM citrate buffer pH 3.3, 20 °C, aqueous buffer, 50 mM Cit pH 3.3, room temperature
[6] = 50 mM citrate buffer pH 4.4, 20 °C, aqueous buffer, 50 mM Cit pH 4.4, room temperature
[7] = 50 mM citrate buffer pH 5.4, 20 °C, aqueous buffer, 50 mM Cit pH 5.4, room temperature
[8] = 20 °C, aqueous buffer, PBS, room temperature
[9] = 20 °C, aqueous with cosolvent or surfactant or cyclodextrin, 10% CrEL/50 mM cit, room temperature
[10] = 20 °C, aqueous with cosolvent or surfactant or cyclodextrin, 10% PS80/50 mM cit, room temperature
[11] = 20 °C, aqueous with cosolvent or surfactant or cyclodextrin, 20% HPBCD/50 mM cit, room temperature
[12] = 20 °C, aqueous with cosolvent or surfactant or cyclodextrin, 20% SBECD/50 mM cit, room temperature
[13] = 20 °C, oil or lipid, Capryol 90, room temperature
[14] = 20 °C, oil or lipid, Capryol PGMC, room temperature
[15] = 20 °C, oil or lipid, Labrasol, room temperature
[16] = 20 °C, oil or lipid, canola oil, room temperature
[17] = 20 °C, organic solvent or mixture, EtOH, room temperature
[18] = 20 °C, organic solvent or mixture, PEG400, room temperature
[19] = 20 °C, organic solvent or mixture, PG, room temperature
[20] = 20 °C, pH 1, simulated gastric fluid, 0.1M HCl, room temperature
[21] = 20 °C, pH 13, aqueous buffer, 0.1M NaOH, room temperature
[22] = 20 °C, saline or isotonic, 0.9% NaCl, room temperature
[23] = water, room temperature (ca. 20 C)

Row | solubility at 18 h [1, 4] | solubility at 18 h [1, 5] | solubility at 18 h [1, 6] | solubility at 18 h [1, 7] | solubility at 18 h [1, 8] | solubility at 18 h [1, 9] | solubility at 18 h [1, 10] | solubility at 18 h [1, 11] | solubility at 18 h [1, 12] | solubility at 18 h [1, 13] | solubility at 18 h [1, 14] | solubility at 18 h [1, 15] | solubility at 18 h [1, 16] | recovery at 120 min, 1 μM ([3]; Caco-2, pH 7.4, Direction A→B) | recovery at 120 min, 1 μM ([3]; Caco-2, pH 7.4, Direction B→A) | efflux ratio at 120 min, 1 µM [3] | Papp A→B at 120 min, 1 μM [3] | Papp B→A at 120 min, 1 μM [3] | permeability class (Low/High absorption potential) at 120 min, 1 µM [3] | Compound | Significant Efflux [2] | other results
1 | < 2 µg/mL | < 2 µg/mL | < 2 µg/mL | < 2 µg/mL | < 2 µg/mL | 55 µg/mL (≈ 113 µM) | 27 µg/mL (≈ 55.5 µM) | 167 µg/mL (≈ 343 µM) | 90 µg/mL (≈ 185 µM) | 215 µg/mL (≈ 442 µM) | 1540 µg/mL (≈ 3160 µM) | 918 µg/mL (≈ 1890 µM) | < 2 µg/mL | 89% | 96% | 7.3 | 8.17 ×10⁻⁶ cm/s | 59.8 ×10⁻⁶ cm/s | > 1 ×10⁻⁶ cm/s | O=C(Cc1ccccc1)Nc1ccc(CCCCc2nnc(NC(=O)Cc3ccccc3)s2)nn1 [Compound 295] | Yes (efflux ratios being significant when greater than or equal to 3 when the Papp (B→A) was greater than or equal to 1×10^−6 cm/s) | solubility at 18 h [1, 17]: 83 µg/mL (≈ 171 µM); solubility at 18 h [1, 18]: 1640 µg/mL (≈ 3380 µM); solubility at 18 h [1, 19]: 234 µg/mL (≈ 481 µM); solubility at 18 h [1, 20]: 3 µg/mL (≈ 6.17 µM); solubility at 18 h [1, 21]: 268 µg/mL (≈ 551 µM); solubility at 18 h [1, 22]: < 2 µg/mL; solubility at 18 h [1, 23]: < 2 µg/mL
2 | < 4 µg/mL | < 4 µg/mL | < 4 µg/mL | < 4 µg/mL | < 4 µg/mL | 732 µg/mL (≈ 1180 µM) | 851 µg/mL (≈ 1370 µM) | 2180 µg/mL (≈ 3510 µM) | 2720 µg/mL (≈ 4380 µM) | 11100 µg/mL (≈ 17900 µM) | 7920 µg/mL (≈ 12700 µM) | 77200 µg/mL (≈ 124000 µM) | 71 µg/mL (≈ 114 µM) | 71% | 56% | 3.5 | 7.76 ×10⁻⁶ cm/s | 27.2 ×10⁻⁶ cm/s | > 1 ×10⁻⁶ cm/s | O=C(Cc1cccc(OC(F)(F)F)c1)Nc1ccc(CCCCc2nnc(NC(=O)C(O)c3cccc(Cl)c3)s2)nn1 (centres unmarked) [Compound 447] | Yes (efflux ratios being significant when greater than or equal to 3 when the Papp (B→A) was greater than or equal to 1×10^−6 cm/s) | solubility at 18 h [1, 17]: 3920 µg/mL (≈ 6310 µM); solubility at 18 h [1, 18]: 57300 µg/mL (≈ 92300 µM); solubility at 18 h [1, 19]: 8260 µg/mL (≈ 13300 µM); solubility at 18 h [1, 20]: < 4 µg/mL; solubility at 18 h [1, 21]: 192 µg/mL (≈ 309 µM); solubility at 18 h [1, 22]: 5 µg/mL (≈ 8.05 µM); solubility at 18 h [1, 23]: < 4 µg/mL
3 |  |  |  |  |  |  |  |  |  |  |  |  |  | 41% | 52% | 7.6 | 4.94 ×10⁻⁶ cm/s | 37.5 ×10⁻⁶ cm/s | > 1 ×10⁻⁶ cm/s | O=C(Cc1ccccc1Cl)Nc1ccc(CCCCc2nnc(NC(=O)Cc3ccccc3F)s2)nn1 [Compound 533] | Yes (efflux ratios being significant when greater than or equal to 3 when the Papp (B→A) was greater than or equal to 1×10^−6 cm/s) | 
4 | < 2 µg/mL | < 2 µg/mL | < 2 µg/mL | < 2 µg/mL | < 2 µg/mL | 228 µg/mL (≈ 400 µM) | 261 µg/mL (≈ 457 µM) | 327 µg/mL (≈ 573 µM) | 125 µg/mL (≈ 219 µM) | 1740 µg/mL (≈ 3060 µM) | 1780 µg/mL (≈ 3120 µM) | 5000 µg/mL (≈ 8770 µM) | 72 µg/mL (≈ 126 µM) | 42% | 53% | 3.1 | 7.52 ×10⁻⁶ cm/s | 23.4 ×10⁻⁶ cm/s | > 1 ×10⁻⁶ cm/s | O=C(Cc1cccc(OC(F)(F)F)c1)Nc1ccc(CCCCc2nnc(NC(=O)Cc3ccccc3)s2)nn1 [Compound 585] | Yes (efflux ratios being significant when greater than or equal to 3 when the Papp (B→A) was greater than or equal to 1×10^−6 cm/s) | solubility at 18 h [1, 17]: 1990 µg/mL (≈ 3490 µM); solubility at 18 h [1, 18]: 3940 µg/mL (≈ 6910 µM); solubility at 18 h [1, 19]: 1420 µg/mL (≈ 2490 µM); solubility at 18 h [1, 20]: < 2 µg/mL; solubility at 18 h [1, 21]: 192 µg/mL (≈ 336 µM); solubility at 18 h [1, 22]: < 2 µg/mL; solubility at 18 h [1, 23]: < 2 µg/mL
5 |  |  |  |  |  |  |  |  |  |  |  |  |  | 65% | 76% | 6 | 8.23 ×10⁻⁶ cm/s | 49.5 ×10⁻⁶ cm/s | > 1 ×10⁻⁶ cm/s | CC(C(=O)Nc1nnc(CCCCc2ccc(NC(=O)Cc3ccccc3)nn2)s1)c1ccccc1 (centres unmarked) [Compound 616] | Yes (efflux ratios being significant when greater than or equal to 3 when the Papp (B→A) was greater than or equal to 1×10^−6 cm/s) | 
6 |  |  |  |  |  |  |  |  |  |  |  |  |  | 56% | 68% | 3.9 | 0.61 ×10⁻⁶ cm/s | 2.37 ×10⁻⁶ cm/s | < 1 ×10⁻⁶ cm/s | O=C(Cc1cccc(OC(F)(F)F)c1)Nc1ccc(CCCCc2nnc(NC(=O)Cc3cccc(OC(F)(F)F)c3)s2)nn1 [Compound 660] | Yes (efflux ratios being significant when greater than or equal to 3 when the Papp (B→A) was greater than or equal to 1×10^−6 cm/s) | 
7 |  |  |  |  |  |  |  |  |  |  |  |  |  | 34% | 42% | 2.6 | 7.59 ×10⁻⁶ cm/s | 19.6 ×10⁻⁶ cm/s | > 1 ×10⁻⁶ cm/s | O=C(Cc1cccc(OC(F)(F)F)c1)Nc1ccc(CCCCc2nnc(NC(=O)Cc3cccc(F)c3)s2)nn1 [Compound 679] | No (efflux ratios being significant when greater than or equal to 3 when the Papp (B→A) was greater than or equal to 1×10^−6 cm/s) | 
8 | < 4 µg/mL | < 4 µg/mL | < 4 µg/mL | < 4 µg/mL | < 4 µg/mL | 309 µg/mL (≈ 527 µM) | 378 µg/mL (≈ 644 µM) | 651 µg/mL (≈ 1110 µM) | 476 µg/mL (≈ 811 µM) | 7410 µg/mL (≈ 12600 µM) | 3680 µg/mL (≈ 6280 µM) | 20700 µg/mL (≈ 35300 µM) | 14 µg/mL (≈ 23.9 µM) | 51% | 66% | 6.6 | 6.26 ×10⁻⁶ cm/s | 41 ×10⁻⁶ cm/s | > 1 ×10⁻⁶ cm/s | O=C(Cc1cccc(OC(F)(F)F)c1)Nc1ccc(CCCCc2nnc(NC(=O)[C@@H](O)c3ccccc3)s2)nn1 [Compound 703] | Yes (efflux ratios being significant when greater than or equal to 3 when the Papp (B→A) was greater than or equal to 1×10^−6 cm/s) | solubility at 18 h [1, 17]: 2640 µg/mL (≈ 4510 µM); solubility at 18 h [1, 18]: 22400 µg/mL (≈ 38200 µM); solubility at 18 h [1, 19]: 4700 µg/mL (≈ 8010 µM); solubility at 18 h [1, 20]: < 4 µg/mL; solubility at 18 h [1, 21]: 656 µg/mL (≈ 1120 µM); solubility at 18 h [1, 22]: < 4 µg/mL; solubility at 18 h [1, 23]: < 4 µg/mL
9 |  |  |  |  |  |  |  |  |  |  |  |  |  | 60% | 67% | 6 | 8.52 ×10⁻⁶ cm/s | 51 ×10⁻⁶ cm/s | > 1 ×10⁻⁶ cm/s | O=C(Cc1cccc(OC(F)(F)F)c1)Nc1ccc(CCCCc2nnc(NC(=O)[C@H](O)c3ccccc3)s2)nn1 [Compound 705] | Yes (efflux ratios being significant when greater than or equal to 3 when the Papp (B→A) was greater than or equal to 1×10^−6 cm/s) | 
